What was measured:
Assay in all cases: relative viability (nuclei count vs DMSO), 5 days (fraction); higher = more cells survive
Indole-3-carbinol = compound: OCc1c[nH]c2ccccc12 [Indole-3-carbinol]
Summary of the method: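 Viability is treated-well nuclei as a fraction of vehicle-well nuclei, reported as the median across plates. Before counting, lung cancer cell lines were kept overnight at 37 °C in 1536-well plates, pinned with five √10-spaced library-drug doses on vehicle-anchored plates, and left 5 days without medium change, then fixed, permeabilised and Hoechst-stained in one step, imaged at 4× and counted by MetaXpress. A plate passed only if control CV was below 25% and at least one doubling occurred.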

[1] = compound: OCc1c[nH]c2ccccc12 [Indole-3-carbinol] + O=C(CCCCCCC(=O)Nc1ccccc1)NO [Vorinostat] (partner 1 µM)
Summary of the method: (§1)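 Medians of duplicate plates are given as relative viability. That measure is the nuclei count in treated wells divided by the count in vehicle wells. Counts were taken on 4× images of lung cancer cell lines in 1536-well plates, 5 days after pin-tool dosing the day after seeding with one drug alone or a fixed anchor-drug dose plus five library-drug doses (not always all listed) in √10 steps.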

[2] = compound: OCc1c[nH]c2ccccc12 [Indole-3-carbinol] + CS(=O)(=O)CCNCc1ccc(-c2ccc3ncnc(Nc4ccc(OCc5cccc(F)c5)c(Cl)c4)c3c2)o1 [Lapatinib] (partner 2 µM)
Summary of the method: as §1

[3] = compound: OCc1c[nH]c2ccccc12 [Indole-3-carbinol] + CC(=O)Nc1cccc(-n2c(=O)n(C3CC3)c(=O)c3c(Nc4ccc(I)cc4F)n(C)c(=O)c(C)c32)c1 [Trametinib] (partner 0.02 µM)
Summary of the method: as §1

[4] = compound: OCc1c[nH]c2ccccc12 [Indole-3-carbinol] + NC(=O)Nc1cc(-c2cccc(F)c2)sc1C(=O)N[C@H]1CCCNC1 [AZD7762] (partner 0.2 µM)
Summary of the method: as §1

| Cell Line | relative viability (Indole-3-carbinol; 0.253 µM) | relative viability (Indole-3-carbinol; 0.8 µM) | relative viability (Indole-3-carbinol; 2.53 µM) | relative viability (Indole-3-carbinol; 8 µM) | relative viability ([1]; first compound 0.253 µM) | relative viability ([1]; first compound 0.8 µM) | relative viability ([1]; first compound 2.53 µM) | relative viability ([1]; first compound 8 µM) | relative viability ([2]; first compound 0.253 µM) | relative viability ([2]; first compound 0.8 µM) | relative viability ([2]; first compound 2.53 µM) | relative viability ([2]; first compound 8 µM) | relative viability ([3]; first compound 0.253 µM) | relative viability ([3]; first compound 0.8 µM) | relative viability ([3]; first compound 2.53 µM) | relative viability ([3]; first compound 8 µM) | relative viability ([4]; first compound 0.253 µM) | relative viability ([4]; first compound 0.8 µM) | relative viability ([4]; first compound 2.53 µM) | relative viability ([4]; first compound 8 µM) |
| --- | --- | --- | --- | --- | --- | --- | --- | --- | --- | --- | --- | --- | --- | --- | --- | --- | --- | --- | --- | --- |
| NCI-H2009 | 1.05 | 1.03 | 1.01 | 0.951 | 0.752 | 0.733 | 0.746 | 0.699 | 1.02 | 0.929 | 0.695 | 0.872 | 0.285 | 0.294 | 0.278 | 0.281 |  |  |  |  |
| HCC-78 | 1.05 | 0.83 | 0.991 | 1.06 | 0.508 | 0.533 | 0.443 | 0.452 | 0.97 | 0.645 | 0.768 | 0.664 | 0.717 | 0.644 | 0.793 | 0.77 | 0.623 | 0.608 | 0.643 | 0.696 |
| SK-LU-1 | 1.11 | 0.969 | 1.03 | 0.996 | 0.795 | 0.865 | 0.757 | 0.839 | 0.941 | 0.903 | 1.06 | 0.829 | 0.637 | 0.453 | 0.469 | 0.582 |  |  |  |  |
| ABC-1 | 0.816 | 0.995 | 1.12 | 0.955 | 1.59 | 1.05 | 1.23 | 1.1 | 1.27 | 1.2 | 1.37 | 0.845 |  |  |  |  | 0.72 | 0.974 | 0.618 | 0.833 |
| NCI-H1703 | 0.962 | 0.908 | 1.05 | 0.904 |  |  |  |  | 1.25 | 1.36 | 0.945 | 0.903 |  |  |  |  | 0.155 |  | 0.113 | 0.103 |
| COR-L 105 | 0.964 | 0.845 | 0.958 | 0.844 | 0.916 | 0.847 | 0.73 | 0.862 | 0.339 | 0.281 | 0.353 | 0.343 | 0.407 | 0.405 | 0.473 | 0.428 |  |  |  |  |
| NCI-H661 | 0.957 | 0.904 | 1.03 | 0.988 | 0.762 | 0.816 | 0.874 | 0.716 | 0.541 | 0.44 | 0.533 | 0.478 | 0.526 | 0.564 | 0.606 | 0.58 |  |  |  |  |
| NCI-H1650 | 1.03 | 0.794 | 0.943 | 0.882 | 0.535 | 0.623 | 0.657 | 0.676 | 0.892 | 0.561 | 0.875 | 0.716 | 0.565 | 0.563 | 0.561 | 0.498 |  |  |  |  |
| SW 1573 | 0.954 | 1.08 | 1.12 | 0.949 | 0.764 | 0.731 | 1.05 | 0.76 | 1.2 | 1.05 | 1.16 | 1.08 | 0.512 | 0.605 | 0.534 | 0.564 |  |  |  |  |
| UMC-11 | 0.977 | 1.03 | 0.966 | 0.983 | 0.332 | 0.377 | 0.432 | 0.398 | 1.03 | 0.953 | 0.91 | 0.951 | 0.713 | 0.727 | 0.675 | 0.683 |  |  |  |  |
| LCLC-103H | 0.889 | 1.01 | 0.932 | 0.915 | 0.894 | 0.736 | 0.829 | 0.706 |  |  |  |  | 0.701 | 0.614 | 0.651 | 0.571 | 0.802 | 0.786 | 0.86 | 0.81 |
| NCI-H2342 | 1.08 | 0.907 | 1.01 | 1.02 | 0.802 | 0.743 | 0.903 | 0.712 |  |  |  |  | 0.824 | 0.931 | 0.866 | 0.764 | 0.576 | 0.455 | 0.456 | 0.453 |
| NCI-H520 | 0.925 | 0.848 | 1.05 | 0.902 | 0.707 | 0.7 | 0.87 | 0.692 | 0.899 | 0.838 | 0.868 | 0.742 | 0.702 | 0.575 | 0.741 | 0.772 |  |  |  |  |
| SW 900 | 0.922 | 0.772 | 0.903 | 0.764 | 0.556 | 0.453 | 0.573 | 0.622 |  |  |  |  | 0.866 | 0.867 | 0.82 | 0.992 | 0.625 | 0.619 | 0.705 | 0.624 |
| NCI-H522 | 1.01 | 0.855 | 0.931 | 0.976 | 1.1 | 0.694 | 0.808 | 0.95 |  |  |  |  | 0.794 | 0.798 | 0.839 | 0.749 | 0.78 | 0.92 | 0.956 | 0.912 |
| NCI-H2023 | 0.952 | 0.963 | 0.984 | 0.935 | 0.727 | 0.526 | 0.588 | 0.572 | 0.817 | 0.882 | 0.778 | 0.891 | 0.525 | 0.532 | 0.555 | 0.473 |  |  |  |  |
| NCI-H441 | 1.1 | 1.28 | 1.15 | 1.11 | 0.823 | 1.05 | 1.09 | 0.758 |  |  |  |  | 0.59 | 0.547 | 0.469 | 0.475 | 1.34 | 1.23 | 1.27 | 1.15 |
| NCI-H2228 | 1.09 | 0.84 | 1.19 | 0.999 | 0.728 | 0.682 | 0.788 | 0.571 | 1.12 | 1.17 | 1.2 | 1.32 | 0.576 | 0.614 | 0.501 | 0.581 |  |  |  |  |
| NCI-H1792 | 0.88 | 0.833 | 0.811 | 0.984 |  |  |  |  | 0.913 | 0.945 | 0.903 | 0.93 | 0.436 | 0.369 | 0.432 | 0.379 | 0.734 | 0.786 | 0.901 | 0.77 |
| IA-LM | 0.962 | 1.11 | 1.04 | 0.905 | 1.08 | 1.03 | 1.11 | 0.96 | 0.842 | 0.902 | 0.837 | 0.783 |  |  |  |  |  |  |  |  |
| NCI-H1563 | 1.02 | 0.883 | 1.09 | 0.908 |  |  |  |  | 1.03 | 0.818 | 0.975 | 0.967 |  |  |  |  |  |  |  |  |

Source: the supplement of paper PMC10307832
